Structures are written as SMILES.

The subject of assay [1] is MPTP-induced mouse. Briefly: Number of neurites and spines per neuron in MPTP-induced mouse (confocal microscopy). To be noted: 1 mg/kg oral once a day for 10 days after MPTP. The assay is classed as in vivo, C57BL/6 mice. As for the experimental part: To observe whether or not the number of neurites and spines per neuron in the tissues was increased, a coronal slice with a thickness of 200 um containing striatum or substantia nigra was prepared using a vibratome. Each group of mice was sacrificed, and the brain was taken out of each group and then placed in a cold, highly-concentrated sucrose dissection buffer bubbled with carbogen (5% CO2 and 95% O2) (87 mM NaCl, 2.5 mM KCl, 1.25 mM NaH2PO4, 25 mM NaHCO3, 1 mM CaCl2, 3 mM MgCl2, 10 mM dextrose, and 75 mM sucrose). While the vibratome was performed, a slicing chamber was filled with the uniformly carbogenated sucrose dissection buffer. After the slicing process was terminated, all the slices were washed with PBS, and fixed with 4% paraformaldehyde in a PBS solution. The fixed brain slices were placed on a 1.5% agarose (in PBS) block. Images thereof were obtained using a confocal microscope (ZEISS LSM 510 META) by using Zeiss LSM image browser software (Carl Zeiss Microimaging, Germany, version 4.0 SP2).

The subject of assay [2] is MAO-B-deficient human neuroblastoma SH-SY5Y cells. Briefly: Reactive oxygen species (DCF-DA staining) in MPP+-treated cells. In kind it is cell-based. To be noted: 2 mM MPP+, 50 nM, 24 hours; FIGS. 19 and 20. The protocol:
In this embodiment, MAO-B-deficient human neuroblastoma SH-SY5Y cells (Korean Cell Line Bank) were used. The cells were cultured in a DMEM medium at 37° C. with 5% of CO2 for 24 hours. The cultured cells were divided into three groups, 2 mM of MPP^+ was added to each group, one of the three groups was treated with 50 nM of CBI, one of the other two groups was treated with 50 nM of rasagiline, and the three groups were further incubated with 5% of CO2 at 37° C. for 24 hours. The group with only MPP^+ added thereto was incubated under the same conditions as described above. Subsequently, the cells were stained with 2,7-dichlorofluorescein diacetate (DCF-DA), which is a fluorescence dye capable of detecting reactive oxygen species, and then observed using a confocal microscope (Nikon Co., Japan).

The test system of assay [3] is MPTP-induced mouse. Briefly: Concentration of dopamine in striatum of MPTP-induced mouse (HPLC). In kind it is in vivo, C57BL/6 mice. To be noted: 1 mg/kg oral once a day, FIG. 4. As for the experimental part: 7 days after the compounds described above are respectively administered to the three groups, the mice in each group were sacrificed by cervical dislocation and brain tissues were immediately taken out of the mice. Striatum was collected from the brain tissue, 0.5 ml of a HPLC assay diluent (0.1 M HClO4, 0.1 mM EDTA) was added to the striatum, and a tissue homogenate was then prepared using an ultrasonic processor. The homogenate was centrifuged at 12,000 rpm for 15 minutes, and the supernatant was filtered with a nitrocellulose filter (0.2 um, Millipore). For HPLC analysis, HR-80 column (80 mm×4.6 mm, particle size: 3 μm ESA, USA) was used, the flow rate of a mobile phase (0.07 M monobasic sodium phosphate, 1 mM sodium octasulfonic acid, 0.1 uM EDTA, 5% acetonitrile, pH 3.2) was maintained at 0.7 ml/min, and the electrode potential of an electrochemical detector (Coulochem III, ESA, USA) was at E1=−100 mV, E2=350 mV.

In the next assay the test system is caspase 3. Nature of the assay: Activity of caspase 3/7 (Apo-ONE) in MPP+-treated cells. The assay is classed as cell-based, human. To be noted: 2 mM MPP+, 24 hours; CBI 1, 5, 10 and 50 nM, rasagiline 50 nM; FIG. 18.

Method for caspase 3: SH-SY5Y cells were incubated in a 96-well plate at a concentration of 5×10^5 cells/well under the same conditions as described above, the cells were treated with 2 mM of MPP^+ and CBI (1, 5, 10 and 50 nM) or rasagiline (50 nM), and the resulting cells were incubated for 24 hours. Subsequently, 100 μl of Apo-ONE caspase 3/7 reagent (Promega, G7790) was added thereto and mixed therewith, and the resultant was further incubated for 4 hours. After the incubation was terminated, fluorescence was measured at an excitation wavelength of 495 nm and an emission wavelength of 521 nm by using a fluorescence plate reader (GeminiXPS, Molecular Devices).

Turning to `C#CCN[C@@H]1CCc2ccccc21` [rasagiline, R(+)-N-propargyl-1-aminoindan, reference compound], the number of neurites entry in the assay with MPTP-induced mouse [1] (FIG. 23) is reported as “did not exhibit statistical significance”. Besides, in the assay with MPTP-induced mouse [1] (FIG. 24), the number of spines result is given as “an increase in the number of spines was observed”. For the same molecule, in assay [2], the reactive oxygen species entry is listed as “significantly decreased”. In the assay on MPTP-induced mouse [3], the “restoration of the concentration of dopamine in striatum compared with normal mice” value is on record as “about 40%”. The “activity of caspase 3” value with caspase 3 is “reduced”.
